Active and inactive are the calls of the source. The rule behind the calls is not given here.
Key:
[1] = Effect of Wnt/beta-Catenin signaling pathway in human SW480 cells assessed as reduction in Axin2 level at 10 uM incubated for 24 hrs by qRT-PCR analysis relative to control; type: functional; settings: SW480, 24 h
[2] = Metabolic stability in human Hepatocyte assessed as half life; type: ADME, cell-based; settings: hepatocytes
[3] = Effect of Wnt/beta-Catenin signaling pathway in human SW480 cells assessed as reduction in HPRT level at 5 uM incubated for 24 hrs by qRT-PCR analysis relative to control; type: functional; settings: SW480, 24 h
CYP3A4 = CYP3A4 (Homo sapiens, UniProt P08684); assay: Inhibition of CYP3A4 in human liver microsomes using Midazolam as substrate at 10 uM in presence of NADPH incubated for 10 mins; type: ADME, Microsome; settings: probe midazolam
MCF-10A = assay: Antiproliferative activity against human MCF-10A cells assessed as inhibition of cell growth measured by MTS method; type: functional, cell-based
SW480 [4] = assay: Effect of Wnt/beta-Catenin signaling pathway in human SW480 cells assessed as decrease in Cyclin D1 level at 20 uM incubated for 24 hrs by Western blot analysis; type: functional, cell-based; settings: DDE = dose-dependent effect
[5] = target: beta-catenin-B-cell lymphoma 9 protein complex (Homo sapiens) (UniProt P35222+O00512); assay: Disruption of beta-catenin/N-terminal biotinylated human BCL9 HD2 (350 to 375 residues) protein-protein interaction in human SW480 cells incubated for 1 hr followed by N-terminal biotinylated human BCL9 HD2 addition and measured after 2 hrs by immunoblot based pull-down assay; type: cell-based; settings: time 3.0 hrs, DDE = dose-dependent effect
[6] = Effect of Wnt/beta-Catenin signaling pathway in human SW480 cells assessed as reduction in Axin2 level at 5 uM incubated for 24 hrs by qRT-PCR analysis relative to control; type: functional; settings: SW480, 24 h
[7] = Inhibition of Wnt/beta-catenin transactivation signalling in human SW480 cells by TOPFlash reporter gene assay; type: cell-based
[8] = Effect of Wnt/beta-Catenin signaling pathway in human SW480 cells assessed as reduction in Axin2 level at 20 uM incubated for 24 hrs by qRT-PCR analysis relative to control; type: functional; settings: SW480, 24 h
CYP2D6 = CYP2D6 (Homo sapiens, UniProt P10635); assay: Inhibition of CYP2D6 in human liver microsomes using bufuralol as substrate at 10 uM in presence of NADPH incubated for 10 mins; type: ADME, Microsome; settings: probe bufuralol
SW480 [9] = assay: Effect of Wnt/beta-Catenin signaling pathway in human SW480 cells assessed as decrease in Axin2 level at 20 uM incubated for 24 hrs by Western blot analysis; type: functional, cell-based; settings: DDE = dose-dependent effect
SW480 [10] = assay: Inhibition of Wnt/beta-catenin transactivation signalling in human SW480 cells transfected with beta-catenin plasmid at 10 uM by TOPFlash luciferase assay; type: cell-based
CYP1A2 = target: T1, CYP1A2 (Homo sapiens, UniProt P05177); assay: Inhibition of CYP1A2 in human liver microsomes using phenacetin at 10 uM in presence of NADPH incubated for 10 mins; type: ADME, Microsome; settings: probe phenacetin
T1 sequence (P05177 whole entry): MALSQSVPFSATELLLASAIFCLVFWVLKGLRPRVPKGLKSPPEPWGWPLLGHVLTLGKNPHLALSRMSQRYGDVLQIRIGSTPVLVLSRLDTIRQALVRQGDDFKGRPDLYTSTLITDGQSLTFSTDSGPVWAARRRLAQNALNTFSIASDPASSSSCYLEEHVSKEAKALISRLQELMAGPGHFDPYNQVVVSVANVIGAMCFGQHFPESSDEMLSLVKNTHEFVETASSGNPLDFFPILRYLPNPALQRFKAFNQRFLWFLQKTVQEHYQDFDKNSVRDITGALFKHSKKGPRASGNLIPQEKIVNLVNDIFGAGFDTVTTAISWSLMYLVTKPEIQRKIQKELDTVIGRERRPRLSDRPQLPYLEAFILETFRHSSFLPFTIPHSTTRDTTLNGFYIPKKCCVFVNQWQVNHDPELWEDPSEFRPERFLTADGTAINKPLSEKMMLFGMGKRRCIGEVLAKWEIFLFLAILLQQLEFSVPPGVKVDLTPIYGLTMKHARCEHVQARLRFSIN

MDA-MB-468 = assay: Effect of Wnt/beta-Catenin signaling in human MDA-MB-468 cells transfected with beta-catenin plasmid assessed as inhibition of cell growth rescue measured after 72 hrs by MTS assay; type: functional, cell-based
[11] = Effect of Wnt/beta-Catenin signaling pathway in human SW480 cells assessed as reduction in BCL9L level at 20 uM incubated for 24 hrs by qRT-PCR analysis relative to control; type: functional; settings: SW480, 24 h
CYP2C9 = CYP2C9 (Homo sapiens, UniProt P11712); assay: Inhibition of CYP2C9 in human liver microsomes using tolbutamide as substrate at 10 uM in presence of NADPH incubated for 10 mins; type: ADME, Microsome; settings: probe tolbutamide
[12] = Effect of Wnt/beta-Catenin signaling pathway in human SW480 cells assessed as reduction in Cyclin D1 level at 20 uM incubated for 24 hrs by qRT-PCR analysis relative to control; type: functional; settings: SW480, 24 h

Sequence of CYP2D6 (P10635 whole entry): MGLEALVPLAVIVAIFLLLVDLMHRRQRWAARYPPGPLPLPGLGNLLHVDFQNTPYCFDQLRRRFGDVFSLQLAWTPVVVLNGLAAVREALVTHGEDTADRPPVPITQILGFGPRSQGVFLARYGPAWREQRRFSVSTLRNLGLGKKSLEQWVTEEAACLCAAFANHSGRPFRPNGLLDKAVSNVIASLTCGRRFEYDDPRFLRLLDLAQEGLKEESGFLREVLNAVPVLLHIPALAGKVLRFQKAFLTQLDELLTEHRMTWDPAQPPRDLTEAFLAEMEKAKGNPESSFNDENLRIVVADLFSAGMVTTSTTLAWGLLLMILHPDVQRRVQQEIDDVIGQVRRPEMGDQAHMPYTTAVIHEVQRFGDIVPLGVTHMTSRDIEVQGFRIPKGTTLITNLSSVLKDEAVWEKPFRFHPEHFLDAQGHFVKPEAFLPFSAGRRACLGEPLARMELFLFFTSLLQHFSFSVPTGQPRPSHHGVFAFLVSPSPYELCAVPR
Sequence of CYP2C9 (P11712 whole entry): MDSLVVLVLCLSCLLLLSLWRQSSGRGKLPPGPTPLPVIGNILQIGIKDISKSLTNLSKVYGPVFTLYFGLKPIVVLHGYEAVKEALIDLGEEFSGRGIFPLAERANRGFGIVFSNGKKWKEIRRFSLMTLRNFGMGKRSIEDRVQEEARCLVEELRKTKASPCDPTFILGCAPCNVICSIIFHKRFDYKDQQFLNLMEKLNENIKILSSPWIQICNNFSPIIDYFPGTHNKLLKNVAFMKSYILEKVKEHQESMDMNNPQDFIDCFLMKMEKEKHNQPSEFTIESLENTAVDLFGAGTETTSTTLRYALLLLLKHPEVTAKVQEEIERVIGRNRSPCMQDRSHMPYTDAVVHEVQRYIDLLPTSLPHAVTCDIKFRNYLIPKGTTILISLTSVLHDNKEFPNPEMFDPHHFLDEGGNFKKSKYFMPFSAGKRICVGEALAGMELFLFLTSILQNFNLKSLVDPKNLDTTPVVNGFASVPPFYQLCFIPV
Sequence of CYP3A4 (P08684 whole entry): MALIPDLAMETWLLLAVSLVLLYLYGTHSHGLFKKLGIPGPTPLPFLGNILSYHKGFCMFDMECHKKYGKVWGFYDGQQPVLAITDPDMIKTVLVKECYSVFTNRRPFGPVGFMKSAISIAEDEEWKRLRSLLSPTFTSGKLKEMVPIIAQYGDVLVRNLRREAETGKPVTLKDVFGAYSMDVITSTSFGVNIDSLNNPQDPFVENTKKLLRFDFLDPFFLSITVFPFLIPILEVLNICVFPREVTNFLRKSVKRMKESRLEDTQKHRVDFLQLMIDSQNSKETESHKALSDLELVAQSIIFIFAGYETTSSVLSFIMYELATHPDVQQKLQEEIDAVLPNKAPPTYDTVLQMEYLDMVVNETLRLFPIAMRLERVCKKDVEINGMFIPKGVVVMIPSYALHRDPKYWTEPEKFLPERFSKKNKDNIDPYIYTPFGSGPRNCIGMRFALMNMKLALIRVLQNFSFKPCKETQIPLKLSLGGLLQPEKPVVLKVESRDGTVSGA

Question: Which results are given for `CC(C)(Oc1cccc(N2CCC[C@@H](C(=O)N(Cc3ccc(-c4cnc5[nH]ccc5c4)cc3)C3CC3)C2)c1)C(=O)N1CCNCC1.Cl`?
Answer: level, % of control at 10 µM [1]: 56%; half-life [2]: 25.2 min; level, % of control at 5 µM [3]: 99%; inhibition at 10 min, 10 µM (CYP3A4): 97%; IC50 (MCF-10A): 36 µM; inhibition (SW480 [4]): Dde; inhibition [5]: Dde; level, % of control at 5 µM [6]: 72%; IC50 [7]: 7 µM; level, % of control at 20 µM [8]: 19%; inhibition at 10 min, 10 µM (CYP2D6): 54%; inhibition (SW480 [9]): Dde; inhibition (SW480 [10]): Active; inhibition at 10 min, 10 µM (CYP1A2): 31%; inhibition (MDA-MB-468): Active; level, % of control at 20 µM [11]: 32%; inhibition at 10 min, 10 µM (CYP2C9): 91%; level, % of control at 20 µM [12]: 29%

From ChEMBL document CHEMBL5154919, “New ZW4864 Derivatives as Small-Molecule Inhibitors for the β-Catenin/BCL9 Protein-Protein Interaction” (ACS Med Chem Lett, 2022)
